Data: US10385057B2, “Pyrazole compounds and methods of making and using same” (Lundbeck La Jolla Research Center, Inc., priority 2015, dated 2019)

How the values were obtained:
MAGL [1] = molecular target: T1, MAGL (Mus musculus, UniProt O35678); test: In vitro competitive activity-based protein profiling, mouse MAGL; assay type: biochemical; settings: for inhibition at 1 µM: read-out: MAGL % inh. 1 μM (mouse)
T1 construct: mouse brain membrane fraction or cell lysates for mouse assays; from tissue
T1 sequence (O35678 1-303): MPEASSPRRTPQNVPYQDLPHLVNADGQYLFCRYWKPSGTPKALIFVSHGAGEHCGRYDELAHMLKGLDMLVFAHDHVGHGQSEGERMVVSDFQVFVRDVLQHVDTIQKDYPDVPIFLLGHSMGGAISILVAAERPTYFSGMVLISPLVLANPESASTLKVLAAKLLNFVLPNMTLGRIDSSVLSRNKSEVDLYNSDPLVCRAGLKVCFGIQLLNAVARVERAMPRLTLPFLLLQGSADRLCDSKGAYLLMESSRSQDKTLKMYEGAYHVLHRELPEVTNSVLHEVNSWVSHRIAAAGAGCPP
In short: (§1)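 Mouse brain membranes or cell lysates (mouse) and human prefrontal cortex or cell membrane fractions (human), 1.0 mg/mL protein, preincubated with inhibitor 30 min at 37 °C, then FP-Rh or HT-01 probe 30 min at 37 °C. SDS-PAGE; MAGL and FAAH activity from in-gel fluorescence band intensity.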

FAAH [2] = molecular target: T2, FAAH (Homo sapiens, UniProt O00519); test: In vitro competitive activity-based protein profiling, human FAAH; assay type: biochemical; settings: for inhibition at 10 µM: read-out: FAAH % inh. 10 μM (human); for inhibition at 1 µM: read-out: FAAH % inh. 1 μM (human)
T2 construct: human prefrontal cortex or cell membrane fractions for human assays; from tissue
T2 sequence (O00519 1-579): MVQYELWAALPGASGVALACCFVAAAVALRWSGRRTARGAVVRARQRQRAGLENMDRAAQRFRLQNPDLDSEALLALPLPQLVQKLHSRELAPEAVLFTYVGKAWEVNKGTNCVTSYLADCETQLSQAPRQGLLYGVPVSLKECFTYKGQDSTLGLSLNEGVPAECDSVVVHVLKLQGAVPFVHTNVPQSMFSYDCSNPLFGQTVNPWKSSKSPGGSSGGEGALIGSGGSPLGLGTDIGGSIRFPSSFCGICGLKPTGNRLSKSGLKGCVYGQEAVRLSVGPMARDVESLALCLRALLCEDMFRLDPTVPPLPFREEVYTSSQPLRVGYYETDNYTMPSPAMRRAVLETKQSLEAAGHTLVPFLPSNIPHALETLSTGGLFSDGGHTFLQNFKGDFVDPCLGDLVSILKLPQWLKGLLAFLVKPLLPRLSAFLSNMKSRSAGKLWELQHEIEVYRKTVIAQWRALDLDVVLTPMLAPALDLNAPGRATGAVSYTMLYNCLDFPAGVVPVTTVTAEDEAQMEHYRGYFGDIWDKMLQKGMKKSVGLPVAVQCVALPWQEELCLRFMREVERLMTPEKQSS
Experimental: (§2) In Vitro Competitive Activity-Based Protein Profiling.
(§3) Proteomes (mouse brain membrane fraction or cell lysates for mouse assays; human prefrontal cortex or cell membrane fractions for human assays) (50 μL, 1.0 mg/mL total protein concentration) were preincubated with varying concentrations of inhibitors at 37° C. After 30 min, FP-Rh or HT-01 (1.0 μL, 50 μM in DMSO) was added and the mixture was incubated for another 30 min at 37° C. Reactions were quenched with SDS loading buffer (15 μL—4×) and run on SDS-PAGE. Following gel imaging, serine hydrolase activity was determined by measuring fluorescent intensity of gel bands corresponding to MAGL and FAAH using ImageJ 1.43u software.

FAAH [3] = molecular target: T3, FAAH (Mus musculus, UniProt O08914); test: In vitro competitive activity-based protein profiling, mouse FAAH; assay type: biochemical; settings: for inhibition at 1 µM: read-out: FAAH % inh. 1 μM (mouse)
T3 construct: mouse brain membrane fraction or cell lysates for mouse assays; from tissue
T3 sequence (O08914 1-579): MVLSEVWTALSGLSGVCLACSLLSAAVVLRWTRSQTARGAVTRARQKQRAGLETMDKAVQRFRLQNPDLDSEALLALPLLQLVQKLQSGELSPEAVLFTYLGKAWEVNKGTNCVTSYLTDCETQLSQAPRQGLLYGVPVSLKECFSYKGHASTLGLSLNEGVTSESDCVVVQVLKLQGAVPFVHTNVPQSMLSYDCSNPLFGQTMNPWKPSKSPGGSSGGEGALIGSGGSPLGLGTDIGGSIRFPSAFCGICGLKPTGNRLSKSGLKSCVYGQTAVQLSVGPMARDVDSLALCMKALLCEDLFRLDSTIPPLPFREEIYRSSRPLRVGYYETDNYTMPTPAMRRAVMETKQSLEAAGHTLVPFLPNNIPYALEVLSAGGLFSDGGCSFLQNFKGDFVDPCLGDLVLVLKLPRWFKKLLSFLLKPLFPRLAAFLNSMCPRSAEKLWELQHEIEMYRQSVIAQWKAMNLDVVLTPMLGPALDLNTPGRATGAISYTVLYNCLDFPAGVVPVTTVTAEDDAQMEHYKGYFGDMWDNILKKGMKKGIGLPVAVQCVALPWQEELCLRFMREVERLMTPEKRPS
In short: as §1

MAGL [4] = molecular target: T4, MAGL (Homo sapiens, UniProt Q99685); test: In vitro competitive activity-based protein profiling, human MAGL; assay type: biochemical; settings: for inhibition at 10 µM: read-out: MAGL % inh. 10 μM (human); for inhibition at 1 µM: read-out: MAGL % inh. 1 μM (human)
T4 construct: human prefrontal cortex or cell membrane fractions for human assays; from tissue
T4 sequence (Q99685 1-303): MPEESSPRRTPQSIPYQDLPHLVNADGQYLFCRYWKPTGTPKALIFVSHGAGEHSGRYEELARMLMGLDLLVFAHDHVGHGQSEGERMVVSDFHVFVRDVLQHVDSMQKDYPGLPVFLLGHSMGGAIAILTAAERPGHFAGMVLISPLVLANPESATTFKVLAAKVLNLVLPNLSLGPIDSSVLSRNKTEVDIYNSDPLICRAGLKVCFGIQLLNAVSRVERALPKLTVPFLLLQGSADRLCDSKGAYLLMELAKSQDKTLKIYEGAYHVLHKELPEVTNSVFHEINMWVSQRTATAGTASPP
Experimental: as §2, §3

MAGL [5] = molecular target: T1, MAGL; test: Mouse brain proteomes from inhibitor treated mice, MAGL; assay type: in vivo; settings: oral gavage, brain 4 h after administration, read-out: MAGL % inh. 5 mg/kg (mouse)
Experimental: Preparation of Mouse Brain Proteomes from Inhibitor Treated Mice.
Inhibitors were administered to wild-type C57Bl/6J by oral gavage in a vehicle of polyethylene glycol. Each animal was sacrificed 4 h following administration and brain proteomes were prepared and analyzed according to previously established methods (See Niphakis, M. J., et al. (2011) ACS Chem. Neurosci. and Long, J. Z., et al. Nat. Chem. Biol. 5:37-44).

CN(Cc1cccc(Oc2ccccc2)c1)[C@H]1C[C@@H]2CN(C(=O)n3cc(C(=O)O)cn3)C[C@@H]2C1 [Example 188, 1-(trans-5-(methyl(3-phenoxybenzyl)amino)octahydrocyclopenta[c]pyrrole-2-carbonyl)-1H-pyrazole-4-carboxylic acid]
inhibition at 1 µM (MAGL [1]): 0 to 25%
inhibition at 10 µM (FAAH [2]): 50 to 75%
inhibition at 1 µM (FAAH [3]): 50 to 75%
inhibition at 10 µM (MAGL [4]): ≥ 75%

NC(=O)c1cnn(C(=O)N2CCC3(CCN(Cc4cc(N5CCOCC5)cc(C(F)(F)F)c4)C3)C2)c1 (stereo not shown) [Example 210, 1-(7-(3-morpholino-5-(trifluoromethyl)benzyl)-2,7-diazaspiro[4.4]nonane-2-carbonyl)-1H-pyrazole-4-carboxamide]
inhibition at 1 µM (MAGL [1]): 0 to 25%
inhibition at 1 µM (FAAH [2]): ≥ 75%
inhibition at 1 µM (FAAH [3]): ≥ 75%
inhibition at 1 µM (MAGL [4]): ≥ 75%

O=C(O)c1cnn(C(=O)N2CCC3(CCN(Cc4cccc(Oc5ccccc5)c4)C3)C2)c1 (stereo not shown) [Example 185, 1-(7-(3-phenoxybenzyl)-2,7-diazaspiro[4.4]nonane-2-carbonyl)-1H-pyrazole-4-carboxylic acid]
inhibition at 1 µM (MAGL [1]): 0 to 25%
inhibition at 10 µM (FAAH [2]): 25 to 50%
inhibition at 1 µM (FAAH [3]): ≥ 75%
inhibition at 10 µM (MAGL [4]): ≥ 75%

O=C(O)c1cnn(C(=O)N2CC3CN(Cc4ccc(Cl)cc4)CC3C2)c1 (stereo not shown) [Example 46, 1-(5-(4-chlorobenzyl)octahydropyrrolo[3,4-c]pyrrole-2-carbonyl)-1H-pyrazole-4-carboxylic acid]
inhibition at 1 µM (MAGL [1]): 0 to 25%
inhibition at 10 µM (FAAH [2]): 0 to 25%
inhibition at 1 µM (FAAH [3]): ≥ 75%
inhibition at 10 µM (MAGL [4]): ≥ 75%

O=C(O)c1cnn(C(=O)N2CCC3(CCN(Cc4ccc(Cl)cc4)C3)C2)c1 (stereo not shown) [Example 48, 1-(7-(4-chlorobenzyl)-2,7-diazaspiro[4.4]nonane-2-carbonyl)-1H-pyrazole-4-carboxylic acid]
inhibition at 1 µM (MAGL [1]): 0 to 25%
inhibition at 10 µM (FAAH [2]): 0 to 25%
inhibition at 1 µM (FAAH [3]): ≥ 75%
inhibition at 10 µM (MAGL [4]): ≥ 75%

O=C(c1cnn(C(=O)N2CC3CN(Cc4cccc(Oc5ccc(Cl)cc5)c4)CC3C2)c1)N1CCCC1 (stereo not shown) [Example 190, (5-(3-(4-chlorophenoxy)benzyl)hexahydropyrrolo[3,4-c]pyrrol-2(1H)-yl)(4-(pyrrolidine-1-carbonyl)-1H-pyrazol-1-yl)methanone]
inhibition at 1 µM (MAGL [1]): 0 to 25%
inhibition at 10 µM (FAAH [2]): ≥ 75%
inhibition at 1 µM (FAAH [3]): ≥ 75%
inhibition at 10 µM (MAGL [4]): ≥ 75%

O=C(O)c1cnn(C(=O)N2CC3CN(Cc4ccc(N5CCCC5)cc4C(F)(F)F)CC3C2)c1 (stereo not shown) [Example 197, 1-(5-(4-(pyrrolidin-1-yl)-2-(trifluoromethyl)benzyl)octahydropyrrolo[3,4-c]pyrrole-2-carbonyl)-1H-pyrazole-4-carboxylic acid]
inhibition at 1 µM (MAGL [1]): 0 to 25%
inhibition at 1 µM (FAAH [2]): ≥ 75%
inhibition at 10 µM (FAAH [2]): ≥ 75%
inhibition at 1 µM (FAAH [3]): ≥ 75%
inhibition at 1 µM (MAGL [4]): 0 to 25%
inhibition at 10 µM (MAGL [4]): ≥ 75%

CN(Cc1ccccc1Cl)[C@H]1C[C@@H]2CN(C(=O)n3cc(C(=O)O)cn3)C[C@@H]2C1 [Example 183, 1-(trans-5-((2-chlorobenzyl)(methyl)amino)octahydrocyclopenta[c]pyrrole-2-carbonyl)-1H-pyrazole-4-carboxylic acid]
inhibition at 1 µM (MAGL [1]): 0 to 25%
inhibition at 10 µM (FAAH [2]): 25 to 50%
inhibition at 1 µM (FAAH [3]): 50 to 75%
inhibition at 10 µM (MAGL [4]): ≥ 75%

CN(Cc1ccc(N2CCCC2)cc1C(F)(F)F)[C@@H]1C[C@@H]2CN(C(=O)n3cc(C(N)=O)cn3)C[C@@H]2C1 [Example 220, 1-(cis-5-(methyl(4-(pyrrolidin-1-yl)-2-(trifluoromethyl)benzyl)amino)octahydrocyclopenta[c]pyrrole-2-carbonyl)-1H-pyrazole-4-carboxamide]
inhibition at 1 µM (MAGL [1]): 0 to 25%
inhibition at 1 µM (FAAH [2]): 0 to 25%
inhibition at 10 µM (FAAH [2]): ≥ 75%
inhibition at 1 µM (FAAH [3]): 0 to 25%
inhibition at 1 µM (MAGL [4]): 0 to 25%
inhibition at 10 µM (MAGL [4]): ≥ 75%

O=C(O)c1cnn(C(=O)N2CC3CN(Cc4ccc(C(F)(F)F)cc4)CC3C2)c1 (stereo not shown) [Example 47, 1-(5-(4-(trifluoromethyl)benzyl)octahydropyrrolo[3,4-c]pyrrole-2-carbonyl)-1H-pyrazole-4-carboxylic acid]
inhibition at 1 µM (MAGL [1]): 0 to 25%
inhibition at 10 µM (FAAH [2]): 50 to 75%
inhibition at 1 µM (FAAH [3]): ≥ 75%
inhibition at 10 µM (MAGL [4]): ≥ 75%

O=C(O)c1cnn(C(=O)N2CC3CN(Cc4cc(N5CCCC5)cc(C(F)(F)F)c4)CC3C2)c1 (stereo not shown) [Example 198, 1-(5-(3-(pyrrolidin-1-yl)-5-(trifluoromethyl)benzyl)octahydropyrrolo[3,4-c]pyrrole-2-carbonyl)-1H-pyrazole-4-carboxylic acid]
inhibition at 1 µM (MAGL [1]): 0 to 25%
inhibition at 1 µM (FAAH [2]): ≥ 75%
inhibition at 10 µM (FAAH [2]): 50 to 75%
inhibition at 1 µM (FAAH [3]): ≥ 75%
inhibition at 1 µM (MAGL [4]): 0 to 25%
inhibition at 10 µM (MAGL [4]): ≥ 75%

O=C(N1CCC2(CCN(Cc3ccccc3Cl)C2)C1)n1cc(Cl)cn1 (stereo not shown) [Example 112, (4-chloro-1H-pyrazol-1-yl)(7-(2-chlorobenzyl)-2,7-diazaspiro[4.4]nonan-2-yl)methanone]
inhibition at 5 mg/kg (MAGL [5]): 0 to 25%
IC50 (MAGL [1]): 100 to 1000 nM
inhibition at 1 µM (MAGL [1]): ≥ 75%
IC50 (FAAH [3]): ≤ 100 nM
inhibition at 1 µM (FAAH [3]): ≥ 75%

O=C(O)c1cnn(C(=O)N2CC3CN(Cc4cc(Cl)ccc4C(F)(F)F)CC3C2)c1 (stereo not shown) [Example 196, 1-(5-(5-chloro-2-(trifluoromethyl)benzyl)octahydropyrrolo[3,4-c]pyrrole-2-carbonyl)-1H-pyrazole-4-carboxylic acid]
inhibition at 1 µM (MAGL [1]): 0 to 25%
inhibition at 1 µM (FAAH [2]): ≥ 75%
inhibition at 10 µM (FAAH [2]): ≥ 75%
inhibition at 1 µM (FAAH [3]): ≥ 75%
inhibition at 1 µM (MAGL [4]): 0 to 25%
inhibition at 10 µM (MAGL [4]): ≥ 75%
